In patent US20260317313A1, “DNA Polymerase Theta Inhibitors Containing Non-Saturated 5-Membered Heterocyclic Rings and Use Thereof” (Thomas Jefferson University, priority 2022, published 2026):

Key:
BRCA2-WT HCT116 cells = test: Survival of BRCA2-WT HCT116 cells; type: cell-based; details: n=3
[1] = molecular target: T1, recombinant human Polq polymerase domain (residues 1792-2590) (Homo sapiens, UniProt O75417); test: Cy5 fluorescence assay of Polq polymerase enzymatic activity; type: biochemical; details: Polq IC50, 5 nM Polq polymerase domain, 60 nM primer-template, 50 uM dNTPs, 37° C., 18 min, 2.5% DMSO, triplicate
T1 sequence (O75417 1792-2590): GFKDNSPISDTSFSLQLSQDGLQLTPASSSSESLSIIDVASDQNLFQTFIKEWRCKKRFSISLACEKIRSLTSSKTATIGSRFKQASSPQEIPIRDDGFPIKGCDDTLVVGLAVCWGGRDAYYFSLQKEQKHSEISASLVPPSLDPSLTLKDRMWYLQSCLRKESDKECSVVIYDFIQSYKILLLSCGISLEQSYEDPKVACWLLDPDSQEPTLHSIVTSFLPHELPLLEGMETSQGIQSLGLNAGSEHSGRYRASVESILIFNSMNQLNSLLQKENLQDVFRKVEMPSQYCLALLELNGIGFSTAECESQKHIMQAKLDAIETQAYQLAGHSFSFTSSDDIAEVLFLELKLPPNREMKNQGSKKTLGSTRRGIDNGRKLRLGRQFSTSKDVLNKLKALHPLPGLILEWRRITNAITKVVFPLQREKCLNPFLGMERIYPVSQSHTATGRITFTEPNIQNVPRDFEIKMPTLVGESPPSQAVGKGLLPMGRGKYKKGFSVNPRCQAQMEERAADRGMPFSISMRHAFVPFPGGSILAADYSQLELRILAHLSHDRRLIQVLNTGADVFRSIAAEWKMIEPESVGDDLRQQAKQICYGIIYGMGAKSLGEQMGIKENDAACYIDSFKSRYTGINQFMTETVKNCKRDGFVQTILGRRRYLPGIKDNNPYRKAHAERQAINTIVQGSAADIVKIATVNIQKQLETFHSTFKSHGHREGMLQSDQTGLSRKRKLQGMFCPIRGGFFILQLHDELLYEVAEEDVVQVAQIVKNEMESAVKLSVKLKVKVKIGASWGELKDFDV
Protocol: The following Cy5 fluorescence assay was used to measure the ability of compounds to inhibit Polq polymerase domain in vitro. The fluorescent based assay was performed as follows: 60 nM of the pre-annealed primer-template containing a 5′ Cy5 fluorophore conjugated template strand (SEQ ID NO 6: 5′-/5Cy5/ […] GGACAG-3′), a downstream complementary oligo conjugated with a 3′ Blackhole quencher (SEQ ID NO 7: 5′-CTAAGCTCACAGTG/3IAbRQSp/-3′) and a primer strand (SEQ ID NO 8: 5′-CTGTCCTGCATGATG-3′) was mixed with 50 uM 2′-deoxyribonucleoside triphosphates (dNTPs), 0.1 mg/mL Bovine serum albumin (BSA), 0.01% NP-40, 10% glycerol, 1 mM dithiothreitol (DTT), 10 mM MgCl2, 25 mM TrisHCl pH 7.8 in the presence of 2.5% DMSO with or without various concentrations (7-point dilution series) of Polq small molecule inhibitors represented by Formula I at 37° C. in a volume of 40 μL.

BRCA2-null HCT116 cells = test: Survival of BRCA2-null HCT116 cells; type: cell-based; details: as compared to BRCA2-WT HCT116 cells; n=3
BRCA2-WT DLD1 cells = test: Survival of BRCA2-WT DLD1 cells; type: cell-based; details: n=3
BRCA2-null DLD1 cells = test: Survival of BRCA2-null DLD1 cells; type: cell-based; details: as compared to BRCA2-WT DLD1 cells; n=3

| SMILES | resistance of BRCA2-WT HCT116 cells to Polqi (BRCA2-WT HCT116 cells) | IC50 [1] [nM] | survival of BRCA2-null HCT116 cells (BRCA2-null HCT116 cells) | resistance of BRCA2-WT DLD1 cells to Polqi (BRCA2-WT DLD1 cells) | survival of BRCA2-null DLD1 cells (BRCA2-null DLD1 cells) |
| --- | --- | --- | --- | --- | --- |
| [2H]C([2H])([2H])N(C(=O)Oc1c(-c2cn[nH]c2)cc(C(F)(F)F)cc1C(F)(F)F)c1ccc(F)cc1 [Example 26, 2-(1H-pyrazol-4-yl)-4,6-bis(trifluoromethyl)phenyl 4-fluorophenyl(methyl-d3)carbamate] | mostly resistant | 2 | significantly reduced | mostly resistant | significantly reduced |
| [2H]C([2H])([2H])N(C(=O)Oc1c(-n2cnn(CC(O)CNC)c2=O)cc(C(F)(F)F)cc1C(F)(F)F)c1ccc(F)cc1 (stereo not shown) [Example 35, 2-{1-[2-hydroxy-3-(methylamino)propyl]-5-oxo-4,5-dihydro-1H-1,2,4-triazol-4-yl}-4,6-bis(trifluoromethyl)phenyl N-(4-fluorophenyl)-N-(methyl-d3)carbamate] | – | 104 | – | – | – |
| [2H]C([2H])([2H])N(C(=O)Oc1c(-c2cn(C3CN(S(C)(=O)=O)C3)nn2)cc(C(F)(F)F)cc1C(F)(F)F)c1ccc(F)c(Cl)c1F [Example 28, 2-[1-(1-methanesulfonylazetidin-3-yl)-1H-1,2,3-triazol-4-yl]-4,6-bis(trifluoromethyl)phenyl N-(3-chloro-2,4-difluorophenyl)-N-(methyl-d3)carbamate] | – | 3.2 | – | – | – |
| [2H]C([2H])([2H])N(C(=O)Oc1c(-c2cnn(CC(N)=O)c2)cc(C(F)(F)F)cc1C(F)(F)F)c1ccc(F)cc1 [Example 27, 2-(1-(2-amino-2-oxoethyl)-1H-pyrazol-4-yl)-4,6-bis(trifluoromethyl)phenyl 4-fluorophenyl(methyl-d3)carbamate] | mostly resistant | 1.8 | significantly reduced | mostly resistant | significantly reduced |
| [2H]C([2H])([2H])N(C(=O)Oc1c(-n2cncn2)cc(C(F)(F)F)cc1C(F)(F)F)c1ccc(F)cc1 [Example 32, 2-(1H-1,2,4-triazol-1-yl)-4,6-bis(trifluoromethyl)phenyl N-(4-fluorophenyl)-N-(methyl-d3)carbamate] | – | 18 | – | – | – |
| [2H]C([2H])([2H])N(C(=O)Oc1c(-c2nnn[nH]2)cc(C(F)(F)F)cc1C(F)(F)F)c1ccc(F)cc1 [Example 21, 2-(1H-1,2,3,4-tetrazol-5-yl)-4,6-bis(trifluoromethyl)phenyl N-(4-fluorophenyl)-N-(methyl-d3)carbamate] | – | 3.2 | – | – | – |
| CN(C(=O)Oc1c(-c2cn(CCCCCC(=O)Nc3cccc4c3C(=O)N(C3CCC(=O)NC3=O)C4=O)nn2)cc(C(F)(F)F)cc1C(F)(F)F)c1ccc(F)cc1 (stereo not shown) [Example 4, 2-(1-(6-((2-(2,6-dioxopiperidin-3-yl)-1,3-dioxoisoindolin-4-yl)amino)-6-oxohexyl)-1H-1,2,3-triazol-4-yl)-4,6-bis(trifluoromethyl)phenyl (4-fluorophenyl) (methyl)carbamate] | – | 5.5 | – | – | – |
| [2H]C([2H])([2H])N(C(=O)Oc1c(-n2cn[nH]c2=O)cc(C(F)(F)F)cc1C(F)(F)F)c1ccc(F)cc1 [Example 34, 2-(5-oxo-4,5-dihydro-1H-1,2,4-triazol-4-yl)-4,6-bis(trifluoromethyl)phenyl N-(4-fluorophenyl)-N-(methyl-d3)carbamate] | – | 51 | – | – | – |
